Publication PMC7497240 (Chembiochem, 2020)

Biological target: T1, ABCG2 (Homo sapiens, UniProt Q9UNQ0)
T1 sequence (Q9UNQ0 1-655): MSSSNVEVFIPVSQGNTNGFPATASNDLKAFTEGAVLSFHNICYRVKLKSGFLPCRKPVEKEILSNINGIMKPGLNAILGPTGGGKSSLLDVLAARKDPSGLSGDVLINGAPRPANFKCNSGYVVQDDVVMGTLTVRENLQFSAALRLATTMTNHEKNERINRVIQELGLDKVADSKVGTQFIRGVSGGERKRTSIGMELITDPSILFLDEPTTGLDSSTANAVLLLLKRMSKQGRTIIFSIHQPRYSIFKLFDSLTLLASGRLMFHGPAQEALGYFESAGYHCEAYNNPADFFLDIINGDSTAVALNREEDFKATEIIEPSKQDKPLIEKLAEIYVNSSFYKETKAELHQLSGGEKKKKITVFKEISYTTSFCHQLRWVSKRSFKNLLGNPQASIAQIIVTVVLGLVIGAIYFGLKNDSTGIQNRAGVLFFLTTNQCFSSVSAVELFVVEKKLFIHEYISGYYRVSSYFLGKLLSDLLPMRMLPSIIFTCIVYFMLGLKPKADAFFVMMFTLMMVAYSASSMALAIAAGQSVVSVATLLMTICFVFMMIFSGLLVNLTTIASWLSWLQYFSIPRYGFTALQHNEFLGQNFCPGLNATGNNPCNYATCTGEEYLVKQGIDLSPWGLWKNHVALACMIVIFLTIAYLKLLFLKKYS
Experiment: Hoechst […] accumulation assay in ABCG2-transfected MDCK II BCRP cells
Type: cell-based

O=C1NC(=O)c2c1c1c3ccccc3[nH]c1c1[nH]c3ccccc3c21 [compound 8, arcyriaflavin A]
IC50: 9 µM
